Where two headings read alike, the source gives them in different places.
Tests used:
kinase domain of PDGFRβ = target: T1, kinase domain of PDGFRβ (Homo sapiens, UniProt P09619); assay: Inhibition of PDGFRb kinase signaling in an in vitro biochemical assay (alphascreen); details: tested at about 1 μM, read-out: PDGFRβ percent inhibition
T1 construct: The kinase domain of PDGFRβ was assayed in 50 mM Hepes; purchased Invitrogen P3082

[1] = test system: MNFS60 (murine AML cells); assay: Cell viability assay in MCSF dependent MNFS60 cells (Cell Titer Glo); assay type: cell-based; details: Mus musculus, tested at about 1 μM; MNFS60 cells; read-out: M-NFS-60 CP percent inhibition
Method: Cell viability was assessed by Cell Titer Glo, Promega. […] Test compounds were serially diluted (3 fold) in DMSO to 500× the final concentration. […] Final concentration of MCSF is 10 ng/ml. Cells were incubated for 72 hrs at 37° C., 5% CO2. After the incubation 100 μl Cell Titer Glo is added to each well to determine viable cells. The assay was performed according to the manufacturer's instruction (Promega Corporation, Madison, Wis. USA). Each experimental condition was performed in triplicate. Raw data was imported in Abase and EC50s calculated with XL-fit data analysis software.

[2] = target: T2, cytoplasmic domain of the human CSF-1R (Homo sapiens, UniProt P07333); assay: In vitro kinase assay for colony stimulating factor-1 receptor (AlphaScreen); assay type: biochemical; details: tested at about 1 μM, read-out: CSF-1R percent inhibition
T2 construct: Recombinant protein corresponding to the cytoplasmic domain of the human CSF-1R; purchased Invitrogen Corporation, Carlsbad, Calif; PV3249
T2 sequence (P07333 539-972 limits assumed): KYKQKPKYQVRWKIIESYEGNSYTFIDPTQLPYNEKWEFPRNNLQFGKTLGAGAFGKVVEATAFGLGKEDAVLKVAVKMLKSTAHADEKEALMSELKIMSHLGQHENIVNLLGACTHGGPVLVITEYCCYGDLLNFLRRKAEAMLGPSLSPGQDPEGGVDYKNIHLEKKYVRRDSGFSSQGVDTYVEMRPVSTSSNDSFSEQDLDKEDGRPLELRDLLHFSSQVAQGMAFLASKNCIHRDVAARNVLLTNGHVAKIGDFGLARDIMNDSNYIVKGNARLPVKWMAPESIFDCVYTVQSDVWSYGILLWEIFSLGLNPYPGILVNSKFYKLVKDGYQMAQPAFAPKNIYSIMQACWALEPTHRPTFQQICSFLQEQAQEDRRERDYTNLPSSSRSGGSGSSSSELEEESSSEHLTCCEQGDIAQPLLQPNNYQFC
How it was run: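 Test compounds, serially diluted threefold starting at 25 μM, were mixed with Hepes buffer (pH 7.5, Mg2+/Mn2+, DTT, BSA, Tween 80) containing 1 μM ATP. Recombinant kinase was present at 4 nM. After stopping, beads were added and plates were read the next day by AlphaScreen.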

kinase domain of cKIT = target: T3, kinase domain of cKIT (Homo sapiens, UniProt P10721); assay: Inhibition of cKIT kinase signaling in an in vitro biochemical assay (alphascreen); details: tested at about 1 μM, read-out: cKit percent inhibition
T3 construct: The kinase domain of cKIT was assayed in 50 mM Hepes; purchased Upstate 14-559
T3 sequence (P10721 589-937 limits assumed): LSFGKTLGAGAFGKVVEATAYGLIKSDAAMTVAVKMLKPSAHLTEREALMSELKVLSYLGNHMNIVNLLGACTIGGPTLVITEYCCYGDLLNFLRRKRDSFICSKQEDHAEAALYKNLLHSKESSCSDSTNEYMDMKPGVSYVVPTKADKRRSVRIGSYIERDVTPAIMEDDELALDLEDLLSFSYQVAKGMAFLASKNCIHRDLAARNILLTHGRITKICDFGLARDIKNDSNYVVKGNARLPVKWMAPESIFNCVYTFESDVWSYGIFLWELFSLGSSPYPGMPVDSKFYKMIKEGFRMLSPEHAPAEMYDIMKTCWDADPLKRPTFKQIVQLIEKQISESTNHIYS

T1 sequence (P09619 600-962 limits assumed): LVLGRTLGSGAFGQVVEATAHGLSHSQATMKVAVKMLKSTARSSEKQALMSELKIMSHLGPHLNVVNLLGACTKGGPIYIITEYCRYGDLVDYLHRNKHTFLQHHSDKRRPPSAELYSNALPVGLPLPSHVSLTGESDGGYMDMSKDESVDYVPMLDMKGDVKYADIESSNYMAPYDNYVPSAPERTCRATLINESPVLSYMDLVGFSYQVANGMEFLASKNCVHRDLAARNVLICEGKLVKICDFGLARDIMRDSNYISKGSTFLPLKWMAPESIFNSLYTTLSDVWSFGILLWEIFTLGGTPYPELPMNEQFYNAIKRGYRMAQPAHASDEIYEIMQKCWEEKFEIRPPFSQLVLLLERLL

| SMILES | inhibition at 1 µM (kinase domain of PDGFRβ) [%] | inhibition at 1 µM [1] [%] | inhibition at 1 µM [2] [%] | inhibition at 1 µM (kinase domain of cKIT) [%] | inhibition at 1 µM (kinase domain of PDGFRβ; compounds of Table 3) [%] | inhibition at 1 µM (kinase domain of cKIT; compounds of Table 3) [%] | inhibition at 1 µM ([2]; compounds of Table 3) [%] |
| --- | --- | --- | --- | --- | --- | --- | --- |
| CC[C@@H](Nc1nc2ccc(Oc3ccnc(C(=O)NC)c3)cc2o1)c1ccccc1 [Compound 19, 4-[2-((R)-1-Phenyl-propyl-amino)-benzooxazol-6-yloxy]-pyridine-2-carboxylic acid methylamide] | 2 | 36 | 100 | – | – | – | – |
| CNC(=O)c1cc(Oc2ccc3nc(Nc4ccccc4N4CCOCC4)oc3c2)ccn1 [Compound 3, 4-[2-(2-Morpholin-4-yl-phenylamino)-benzooxazol-6-yloxy]-pyridin-2-carboxylic acid methylamide] | – | 0 | 96 | – | – | – | – |
| CNC(=O)c1cc(Oc2ccc3nc(Nc4ccc(Br)cc4)oc3c2)ccn1 [Compound 1, 4-[2-(4-Bromo-phenylamino)-benzooxazol-6-yloxy]-pyridine-2-carboxylic acid methylamide] | – | 21 | 99 | – | – | – | – |
| CNC(=O)c1cc(Oc2ccc3nc(Nc4ccc(Cl)c(C(F)(F)F)c4)sc3c2)ccn1 [Compound 126, 4-[2-(4-Chloro-3-trifluoromethyl-phenylamino)-benzothiazol-6-yloxy]-pyridine-2-carboxylic acid methylamide] | 99 | – | 68 | 83 | – | – | – |
| CNC(=O)c1cc(Oc2ccc3nc(N[C@@H](C(=O)NC)c4ccccc4)oc3c2)ccn1 [Compound 36, 4-{2-[((R)-Methylcarbamoyl-phenyl-methyl)-amino]-benzo-oxazol-6-yloxy}-pyridine-2-carboxylic acid methylamide] | 6 | – | 78 | 0 | – | – | – |
| CNC(=O)c1cc(Oc2ccc3nc(N[C@H]4CCCC[C@H]4NC(C)=O)sc3c2)ccn1 [Example 295, 4-(2-((1S,2R)-2-acetamidocyclohexylamino)benzo[d]thiazol-6-yloxy)-N-methylpicolinamide] | – | – | – | – | 0 | 5 | 85 |
| CNC(=O)c1cc(Oc2ccc3nc(Nc4ccc5c(c4)OCO5)oc3c2)ccn1 [Compound 95, 4-[2-(Benzo[1,3]dioxol-5-yl-amino)-benzooxazol-6-yloxy]-pyridine-2-carboxylic acid methylamide] | 8 | – | 98 | 40 | – | – | – |
| CNC(=O)c1cc(Oc2ccc3nc(N[C@H]4CCN(C(C)=O)C4)sc3c2)ccn1 [Example 305, (S)-4-(2-(1-acetylpyrrolidin-3-ylamino)benzo[d]thiazol-6-yloxy)-N-methylpicolinamide] | 7 | – | 87 | 15 | – | – | – |
| CNC(=O)c1cc(Oc2ccc3nc(NC(=O)c4cccc5c4OCCO5)oc3c2)ccn1 [Compound 110, 4-{2-[(2,3-Dihydro-benzo-[1,4]dioxine-5-carbonyl)-amino]-benzooxazol-6-yloxy}-pyridine-2-carboxylic acid methylamide] | 8 | – | 85 | 16 | – | – | – |
| CNC(=O)c1cc(Oc2ccc3nc(N[C@H]4CCCC[C@H]4NC(=O)C(C)C)sc3c2)ccn1 [Example 310, 4-(2-((1S,2R)-2-isobutyramidocyclohexyl-amino)benzo[d]thiazol-6-yloxy)-N-methylpicolinamide] | 13 | – | 15 | 13 | – | – | – |
| CNC(=O)c1cc(Oc2ccc3nc(NCCN4CCCC4)oc3c2)ccn1 [Compound 63, 4-[2-(2-Pyrrolidin-1-yl-ethylamino)-benzooxazol-6-yloxy]-pyridin-2-carboxylic acid methylamide] | 3 | – | 45 | 6 | – | – | – |
| CNC(=O)c1cc(Oc2ccc3nc(N[C@@H]4CCCC[C@H]4OCc4ccccc4)sc3c2)ccn1 [Compound 155, 4-[2-((1R,2R)-2-Benzyloxy-cyclohexylamino)-benzothiazol-6-yloxy]-pyridine-2-carboxylic acid methylamide] | 8 | – | 87 | 0 | – | – | – |

Reference: patent US8173689B2 (Novartis AG, priority 2006, dated 2012)
